Measurements from patent US20220041681A1 (MEDIMMUNE LIMITED, priority 2016, published 2022).
Several values for one entry are separate records, joined by “and”; a condition that tells them apart may be missing. Equal entries are not always repeated. Numbered stars: 1 amine (or outer) side, 2 acyl side, 3 side chain; on linkers, the order of the positions; unused ones are H or OH. Side chains are listed from the residue outwards. Peptide text beside a SMILES is read from it. * marks the point of attachment. γGlu = O=C(O)[C@H](CCC(=O)[*:2])N[*:1]; Palmitoyl = CCCCCCCCCCCCCCCC(=O)*

How the values were obtained:
[1] = frozen blank plasma from rat; conditions: 37° C., up to 48 hours
[2] = frozen blank plasma from mouse; conditions: 37° C., up to 48 hours
Human GlucR [3] = target: T1, Human GlucR (Homo sapiens, UniProt P47871); assay: cAMP activity assay (assay 1) in assay medium; type: cell-based; conditions: Table 4, additional peptides, read-out: hGlucR EC50
T1 construct: expressed in transfected cells
T1 sequence (P47871 26-477): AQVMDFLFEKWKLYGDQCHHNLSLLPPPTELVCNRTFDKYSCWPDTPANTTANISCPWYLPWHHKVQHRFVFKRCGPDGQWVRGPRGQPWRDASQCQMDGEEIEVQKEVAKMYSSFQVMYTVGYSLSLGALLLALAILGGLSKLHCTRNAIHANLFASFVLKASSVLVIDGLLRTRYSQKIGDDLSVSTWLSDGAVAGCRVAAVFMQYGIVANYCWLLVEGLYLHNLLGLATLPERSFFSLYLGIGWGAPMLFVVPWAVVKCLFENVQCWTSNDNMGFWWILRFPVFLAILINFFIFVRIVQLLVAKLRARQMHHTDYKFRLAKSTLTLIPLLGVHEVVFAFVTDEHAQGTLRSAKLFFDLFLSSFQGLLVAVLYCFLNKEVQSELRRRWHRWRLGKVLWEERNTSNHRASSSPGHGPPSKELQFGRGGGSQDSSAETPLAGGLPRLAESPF

Human GLP1R = Human GLP1R (Homo sapiens, UniProt P43220); assay: cAMP activity assay (assay 1) in assay medium; type: cell-based; conditions: Table 4, additional peptides, read-out: hGLP1R EC50
Human GLP1R, sequence (P43220 24-463): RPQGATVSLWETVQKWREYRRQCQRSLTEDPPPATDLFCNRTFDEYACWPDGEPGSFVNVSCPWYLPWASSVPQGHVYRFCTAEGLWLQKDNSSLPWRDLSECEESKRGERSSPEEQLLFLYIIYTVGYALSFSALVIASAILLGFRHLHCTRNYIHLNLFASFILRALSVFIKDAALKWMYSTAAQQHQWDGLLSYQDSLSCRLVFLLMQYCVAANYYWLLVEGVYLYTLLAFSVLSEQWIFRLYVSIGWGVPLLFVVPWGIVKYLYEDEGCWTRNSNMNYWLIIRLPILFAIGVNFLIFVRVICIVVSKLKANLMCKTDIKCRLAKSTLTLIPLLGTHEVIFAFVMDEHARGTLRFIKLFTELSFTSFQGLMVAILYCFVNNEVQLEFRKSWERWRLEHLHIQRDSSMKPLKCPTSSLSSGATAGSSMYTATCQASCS

Human GIPr = target: T2, Human GIPr (Homo sapiens, UniProt P48546); assay: cAMP activity assay (assay 1) in assay medium; type: cell-based; conditions: Table 4, additional peptides, read-out: hGIPR EC50
T2 sequence (P48546 22-466): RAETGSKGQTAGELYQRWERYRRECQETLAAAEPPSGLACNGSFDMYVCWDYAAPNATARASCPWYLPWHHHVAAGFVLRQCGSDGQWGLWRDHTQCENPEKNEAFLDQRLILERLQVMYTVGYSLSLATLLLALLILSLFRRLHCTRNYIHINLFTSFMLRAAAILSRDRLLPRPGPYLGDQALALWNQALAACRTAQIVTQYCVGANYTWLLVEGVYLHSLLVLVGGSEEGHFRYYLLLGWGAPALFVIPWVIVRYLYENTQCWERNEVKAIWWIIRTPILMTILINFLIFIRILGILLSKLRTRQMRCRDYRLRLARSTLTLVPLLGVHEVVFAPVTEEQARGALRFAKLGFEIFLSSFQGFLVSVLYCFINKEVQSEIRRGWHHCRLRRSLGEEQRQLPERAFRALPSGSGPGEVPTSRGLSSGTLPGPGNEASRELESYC

Human GlucR [4] = target: T1, Human GlucR; assay: cAMP assay in presence of serum albumin (assay 2), 4.4% human serum albumin; type: cell-based; conditions: relative potency GlucR / relative potency GLP1R vs native ligands
Description: (§1) CHO cells with stable recombinant expression of the human, mouse or rat GlucR or GLP-t receptor were cultured in DMEM 10% FBS and geneticin (100 μg/mil). Cryopreserved cell stocks were prepared in 1× cell freezing medium-DMSO serum free (Sigma Aldrich) at 2×10^7/vial and stored at […]. […] Peptides were serially diluted in DMSO and then diluted 100 fold into DMEM containing serum albumin at stated final concentration. […] Cells were added to the assay plates and incubated for 30 min at room temperature. Following incubation the assay was stopped and cAMP levels measured using the HTRF® dynamic d2 cAMP assay kit available from CisBio Bioassays, as per the manufacturer's guidelines. Plates were read on Perkin Elmer ENVISION® fluorescence plate readers. Human and rat serum albumin were purchased from Sigma Aldrich and mouse serum albumin from Equitech Bio Ltd.

Mouse GlucR = target: T3, Mouse GlucR (Mus musculus, UniProt Q61606); assay: cAMP assay in presence of serum albumin (assay 2), 3.2% mouse serum albumin; type: cell-based; conditions: relative potencies vs native ligands
T3 construct: expressed in transfected cells
T3 sequence (Q61606 27-485): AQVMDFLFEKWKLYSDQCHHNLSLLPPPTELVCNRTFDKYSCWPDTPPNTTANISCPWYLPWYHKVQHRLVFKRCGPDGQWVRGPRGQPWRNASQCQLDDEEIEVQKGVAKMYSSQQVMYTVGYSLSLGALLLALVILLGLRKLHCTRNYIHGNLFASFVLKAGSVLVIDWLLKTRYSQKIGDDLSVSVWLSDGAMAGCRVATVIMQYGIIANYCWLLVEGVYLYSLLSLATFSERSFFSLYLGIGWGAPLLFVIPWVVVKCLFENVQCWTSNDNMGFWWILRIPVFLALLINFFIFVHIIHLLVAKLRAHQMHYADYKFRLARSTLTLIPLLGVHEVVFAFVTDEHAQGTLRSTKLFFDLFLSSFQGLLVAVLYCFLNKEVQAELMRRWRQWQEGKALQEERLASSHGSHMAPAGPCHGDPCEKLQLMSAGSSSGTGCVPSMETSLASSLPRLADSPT
Description: as §1

| fragment found [1] | EC50 (Human GlucR [3]) [nM] | EC50 (Human GLP1R) [nM] | Molecule | also measured |
| --- | --- | --- | --- | --- |
| DPP IV-cleavage product, 2% at 24 h | – | – | HSQGTFTSDYSKXLDSERARDFVAWLVAGG-amide X13 = K(gE-palm) | fragment found [2]: DPP IV-cleavage product, 14% at 24 h and +1 DPP cleaved product, 5% at 24 h |
| – | – | 0.161 | CCCCCCCCCCCCCCCC(=O)N[C@@H](CCC(=O)NCCCC[C@H](NC(=O)[C@H](CO)NC(=O)[C@H](CC(=O)O)NC(=O)[C@H](CC(C)C)NC(=O)[C@H](Cc1ccc(O)cc1)NC(=O)[C@H](CCC(=O)O)NC(=O)[C@H](CO)NC(=O)[C@H](Cc1ccc(O)cc1)NC(=O)[C@H](CC(=O)O)NC(=O)[C@H](CO)NC(=O)[C@@H](NC(=O)[C@H](Cc1ccccc1)NC(=O)[C@@H](NC(=O)CNC(=O)[C@H](CCC(N)=O)NC(=O)CNC(=O)[C@@H](N)Cc1c[nH]cn1)[C@@H](C)O)[C@@H](C)O)C(=O)N[C@@H](CCCNC(=N)N)C(=O)N[C@@H](C)C(=O)N[C@@H](CCCNC(=N)N)C(=O)N[C@@H](CC(=O)O)C(=O)N[C@@H](Cc1ccccc1)C(=O)N[C@H](C(=O)N[C@@H](C)C(=O)N[C@@H](Cc1c[nH]c2ccccc12)C(=O)N[C@@H](CC(C)C)C(=O)N[C@H](C(=O)N[C@@H](C)C(=O)NCC(=O)NCC(N)=O)C(C)C)C(C)C)C(=O)O [g735] (H-HGQGTFTSDYSEYLDSK([γGlu-Palmitoyl])RARDFVAWLVAGG-NH2; N-terminus assumed) | – |
| DPP IV-cleavage product, 3% at 24 h | – | – | HSQGTFTSDXSRYLDSRSARDFVAWLEAGG-amide X10 = K(gE-palm) | – |
| – | 0.362 | 0.1 | CCCCCCCCCCCCCCCC(=O)N[C@@H](CCC(=O)NCCCC[C@H](NC(=O)[C@H](CO)NC(=O)[C@H](CC(=O)O)NC(=O)[C@H](CC(C)C)NC(=O)[C@H](Cc1ccc(O)cc1)NC(=O)[C@H](CCCCN)NC(=O)[C@H](CO)NC(=O)[C@H](Cc1ccc(O)cc1)NC(=O)[C@H](CC(=O)O)NC(=O)[C@H](CO)NC(=O)[C@@H](NC(=O)[C@H](Cc1ccccc1)NC(=O)[C@@H](NC(=O)CNC(=O)[C@H](CCC(N)=O)NC(=O)CNC(=O)[C@@H](N)Cc1c[nH]cn1)[C@@H](C)O)[C@@H](C)O)C(=O)N[C@@H](CCCNC(=N)N)C(=O)N[C@@H](C)C(=O)N[C@@H](CCC(N)=O)C(=O)N[C@@H](CC(=O)O)C(=O)N[C@@H](Cc1ccccc1)C(=O)N[C@H](C(=O)N[C@@H](CCC(N)=O)C(=O)N[C@@H](Cc1c[nH]c2ccccc12)C(=O)N[C@@H](CC(C)C)C(=O)N[C@H](C(=O)N[C@@H](C)C(=O)NCC(=O)NCC(N)=O)C(C)C)C(C)C)C(=O)O [g3 ? 0] | – |

The remaining lines, values behind:

| Molecule | fragment found [1] | EC50 (Human GlucR [3]) [nM] | EC50 (Human GLP1R) [nM] | also measured |
| --- | --- | --- | --- | --- |
| CCCCCCCCCCCCCCCC(=O)N[C@@H](CCC(=O)NCCCC[C@H](NC(=O)[C@H](CCCCN)NC(=O)[C@H](CO)NC(=O)[C@H](Cc1ccc(O)cc1)NC(=O)[C@H](CC(=O)O)NC(=O)[C@H](CO)NC(=O)[C@@H](NC(=O)[C@H](Cc1ccccc1)NC(=O)[C@@H](NC(=O)CNC(=O)[C@H](CCC(N)=O)NC(=O)C(C)(C)NC(=O)[C@@H](N)Cc1c[nH]cn1)[C@@H](C)O)[C@@H](C)O)C(=O)N[C@@H](CC(C)C)C(=O)N[C@@H](CC(=O)O)C(=O)N[C@@H](CO)C(=O)N[C@@H](CCC(=O)O)C(=O)N[C@@H](CCCNC(=N)N)C(=O)N[C@@H](C)C(=O)N[C@@H](CCCNC(=N)N)C(=O)N[C@@H](CC(=O)O)C(=O)N[C@@H](Cc1ccccc1)C(=O)N[C@H](C(=O)N[C@@H](C)C(=O)N[C@@H](Cc1c[nH]c2ccccc12)C(=O)N[C@@H](CC(C)C)C(=O)N[C@H](C(=O)N[C@@H](C)C(=O)NCC(=O)NCC(N)=O)C(C)C)C(C)C)C(=O)O [g87 ?] | – | 0.129 | 0.0298 | – |
| CC(C)C[C@H](NC(=O)[C@H](Cc1ccc(O)cc1)NC(=O)[C@H](CCCCN)NC(=O)[C@H](CO)NC(=O)[C@H](Cc1ccc(O)cc1)NC(=O)[C@H](CC(=O)O)NC(=O)[C@H](CO)NC(=O)[C@@H](NC(=O)[C@H](Cc1ccccc1)NC(=O)[C@@H](NC(=O)CNC(=O)[C@H](CCC(N)=O)NC(=O)[C@H](CO)NC(=O)[C@@H](N)Cc1c[nH]cn1)[C@@H](C)O)[C@@H](C)O)C(=O)N[C@@H](CC(=O)O)C(=O)N[C@@H](CO)C(=O)N[C@@H](CCCNC(=N)N)C(=O)N[C@@H](CCCNC(=N)N)C(=O)N[C@@H](C)C(=O)N[C@@H](CCC(N)=O)C(=O)N[C@@H](CC(=O)O)C(=O)N[C@@H](Cc1ccccc1)C(=O)N[C@H](C(=O)N[C@@H](CCC(N)=O)C(=O)N[C@@H](Cc1c[nH]c2ccccc12)C(=O)N[C@@H](CC(C)C)C(=O)N[C@H](C(=O)N[C@@H](C)C(=O)NCC(=O)NCC(=O)NCC(=O)NCC(=O)NCC(=O)NCC(=O)N[C@@H](CCCCN)C(N)=O)C(C)C)C(C)C [g32 ?] | – | 0.0103 | 0.0261 | – |
| CCCCCCCCCCCCCCCC(=O)N[C@@H](CCC(=O)NCCCC[C@H](NC(=O)[C@H](Cc1ccc(O)cc1)NC(=O)[C@H](CCCCN)NC(=O)[C@H](CO)NC(=O)[C@H](Cc1ccc(O)cc1)NC(=O)[C@H](CC(=O)O)NC(=O)[C@H](CO)NC(=O)[C@@H](NC(=O)[C@H](Cc1ccccc1)NC(=O)[C@@H](NC(=O)CNC(=O)[C@H](CCC(N)=O)NC(=O)[C@H](CO)NC(=O)[C@@H](N)Cc1c[nH]cn1)[C@@H](C)O)[C@@H](C)O)C(=O)N[C@@H](CC(=O)O)C(=O)N[C@@H](CO)C(=O)N[C@@H](CCCNC(=N)N)C(=O)N[C@@H](CCCNC(=N)N)C(=O)N[C@@H](C)C(=O)N[C@@H](CCC(N)=O)C(=O)N[C@@H](CC(=O)O)C(=O)N[C@@H](Cc1ccccc1)C(=O)N[C@H](C(=O)N[C@@H](CCC(N)=O)C(=O)N[C@@H](Cc1c[nH]c2ccccc12)C(=O)N[C@@H](CC(C)C)C(=O)N[C@@H](CCC(=O)O)C(=O)N[C@@H](C)C(=O)NCC(=O)NCC(N)=O)C(C)C)C(=O)O [g601] (H-HSQGTFTSDYSKYK([γGlu-Palmitoyl])DSRRAQDFVQWLEAGG-NH2; N-terminus assumed) | – | – | – | EC50 (Human GIPr): 0.0741 nM |
| HSQGTFTSDXSEYLDSERARDFVAWLEAGG-amide X10 = K(gE-palm) | DPP cleaved product, minor | – | – | fragment found [2]: DPP cleaved product, minor |
| CCCCCCCCCCCCCCCC(=O)N[C@@H](CCC(=O)NCCCC[C@H](NC(=O)[C@H](CO)NC(=O)[C@H](CC(=O)O)NC(=O)[C@H](CC(C)C)NC(=O)[C@H](Cc1ccc(O)cc1)NC(=O)[C@H](CCCCN)NC(=O)[C@H](CO)NC(=O)[C@H](Cc1ccc(O)cc1)NC(=O)[C@H](CC(=O)O)NC(=O)[C@H](CO)NC(=O)[C@@H](NC(=O)[C@H](Cc1ccccc1)NC(=O)[C@@H](NC(=O)CNC(=O)[C@H](CCC(N)=O)NC(=O)CNC(=O)[C@@H](N)Cc1c[nH]cn1)[C@@H](C)O)[C@@H](C)O)C(=O)N[C@@H](CCCNC(=N)N)C(=O)N[C@@H](C)C(=O)N[C@@H](CCCNC(=N)N)C(=O)N[C@@H](CC(=O)O)C(=O)N[C@@H](Cc1ccccc1)C(=O)N[C@H](C(=O)N[C@@H](CCC(=O)O)C(=O)N[C@@H](Cc1c[nH]c2ccccc12)C(=O)N[C@@H](CC(C)C)C(=O)N[C@H](C(=O)N[C@@H](C)C(=O)NCC(=O)NCC(N)=O)C(C)C)C(C)C)C(=O)O [g660] (H-HGQGTFTSDYSKYLDSK([γGlu-Palmitoyl])RARDFVEWLVAGG-NH2; N-terminus assumed) | – | – | – | EC50 (Human GIPr): 3.32 nM |
| CCCCCCCCCCCCCCCC(=O)N[C@@H](CCC(=O)NCCCC[C@H](NC(=O)[C@H](CO)NC(=O)[C@H](CC(=O)O)NC(=O)[C@H](CC(C)C)NC(=O)[C@H](Cc1ccc(O)cc1)NC(=O)[C@H](CCCCN)NC(=O)[C@H](CO)NC(=O)[C@H](Cc1ccc(O)cc1)NC(=O)[C@H](CC(=O)O)NC(=O)[C@H](CO)NC(=O)[C@@H](NC(=O)[C@H](Cc1ccccc1)NC(=O)[C@@H](NC(=O)CNC(=O)[C@H](CCC(N)=O)NC(=O)CNC(=O)[C@@H](N)Cc1c[nH]cn1)[C@@H](C)O)[C@@H](C)O)C(=O)N[C@@H](CCCNC(=N)N)C(=O)N[C@@H](C)C(=O)N[C@@H](CCC(N)=O)C(=O)N[C@@H](CC(=O)O)C(=O)N[C@@H](Cc1ccccc1)C(=O)N[C@H](C(=O)N[C@@H](CCC(N)=O)C(=O)N[C@@H](Cc1c[nH]c2ccccc12)C(=O)N[C@@H](CC(C)C)C(=O)N[C@H](C(=O)N[C@@H](C)C(=O)NCC(=O)NCC(N)=O)C(C)C)C(C)C)C(=O)O [Peptide G380] | – | – | – | Human GlucR/GLP1R Ratio (Human GlucR [4]): 0.013; Mouse GlucR/GLP1R Ratio (Mouse GlucR): 0.006 |
